Test results taken from the supplement of paper PMC13380429.
± gives the standard deviation of the averaged measurements.

How the values were obtained:
Details in all cases: 72 h
HepG2 [1] = test: cell viability relative to DMSO; higher = less toxic
Calu-3 [2] = test: as above
U2OS [3] = test: as above
Vero E6 [4] = test: as above
Caco-2 [5] = test: as above
HepG2 [6] = test: relative viability EC50 (midpoint between 100% and the lowest measured viability); higher = less toxic
Calu-3 [7] = test: as above
U2OS [8] = test: as above
Vero E6 [9] = test: as above
Caco-2 [10] = test: as above
HepG2 [11] = test: drug sensitivity score (DSS) for viability; higher = more toxic; extreme values may be limits of the assay
Calu-3 [12] = test: as above
U2OS [13] = test: as above
Vero E6 [14] = test: as above
Caco-2 [15] = test: as above

Row | SMILES | cell viability (HepG2 [1]; 1 nM) [%] | cell viability (HepG2 [1]; 10 nM) [%] | cell viability (HepG2 [1]; 100 nM) [%] | cell viability (HepG2 [1]; 1000 nM) [%] | cell viability (HepG2 [1]; 10000 nM) [%] | cell viability (Calu-3 [2]; 1 nM) [%] | cell viability (Calu-3 [2]; 10 nM) [%] | cell viability (Calu-3 [2]; 100 nM) [%] | cell viability (Calu-3 [2]; 1000 nM) [%] | cell viability (Calu-3 [2]; 10000 nM) [%] | cell viability (U2OS [3]; 1 nM) [%] | cell viability (U2OS [3]; 10 nM) [%] | cell viability (U2OS [3]; 100 nM) [%] | cell viability (U2OS [3]; 1000 nM) [%] | cell viability (U2OS [3]; 10000 nM) [%] | cell viability (Vero E6 [4]; 1 nM) [%] | cell viability (Vero E6 [4]; 10 nM) [%] | cell viability (Vero E6 [4]; 100 nM) [%] | cell viability (Vero E6 [4]; 1000 nM) [%] | cell viability (Vero E6 [4]; 10000 nM) [%] | cell viability (Caco-2 [5]; 1 nM) [%] | cell viability (Caco-2 [5]; 10 nM) [%] | cell viability (Caco-2 [5]; 100 nM) [%] | cell viability (Caco-2 [5]; 1000 nM) [%] | cell viability (Caco-2 [5]; 10000 nM) [%] | relative viability EC50 (HepG2 [6]) [µM] | relative viability EC50 (Calu-3 [7]) [µM] | relative viability EC50 (U2OS [8]) [µM] | relative viability EC50 (Vero E6 [9]) [µM] | relative viability EC50 (Caco-2 [10]) [µM] | drug sensitivity score (HepG2 [11]) | drug sensitivity score (Calu-3 [12]) | drug sensitivity score (U2OS [13]) | drug sensitivity score (Vero E6 [14]) | drug sensitivity score (Caco-2 [15])
1 | Nc1ncnc2c1C(=O)N(c1ccc([C@H]3CC[C@H](CC(=O)O)CC3)cc1)CCO2 | 91.2 | 101 | 95.3 | 117 | 92.3 | 107 | 99.7 | 109 | 105 | 110 | 104 | 99.6 | 109 | 102 | 97.5 | 98 | 103 | 93.7 | 107 | 107 | 100 | 90.6 | 95.3 | 98.1 | 104 | > 10 | > 10 | > 10 | > 10 | > 10 | 0 | 0 | 0 | 0 | 0
2 | Nc1ncnc2c1ncn2C1CCCO1 (stereo not drawn) | 98.7 | 94.8 | 103 | 93.9 | 103 | 106 | 102 | 94.1 | 102 | 102 | 97.4 | 98.9 | 94.8 | 99.4 | 98.9 | 95.6 | 102 | 101 | 98.8 | 100 | 104 | 107 | 99.7 | 90.2 | 91.7 | > 10 | > 10 | > 10 | > 10 | > 10 | 0 | 0 | 0 | 0 | 0
3 | CC=CC1=C(C(=O)O)N2C(=O)[C@@H](NC(=O)[C@H](N)c3ccc(O)cc3)[C@H]2SC1 (mixture of isomers) [cefprozil] | 112 | 104 | 100 | 97.2 | 106 | 86.7 | 94.2 | 81 | 97.8 | 95.5 | 95.8 | 101 | 96.8 | 99.8 | 98.7 | 110 | 90.7 | 99.9 | 103 | 112 | 101 | 94.3 | 82.7 | 120 | 125 | > 10 | > 10 | > 10 | > 10 | > 10 | 0 | 0 | 0 | 0 | 0
4 | N[C@H]1C(O)O[C@H](CO)[C@@H](O)[C@@H]1O (mixture of isomers) [glucosamine] | 112 | 106 | 109 | 100 | 112 | 101 | 107 | 97.2 | 101 | 105 | 97.6 | 99.9 | 94.2 | 96.4 | 95.7 | 108 | 103 | 101 | 97.7 | 105 | 88.8 | 91.8 | 95 | 96.6 | 100 | > 10 | > 10 | > 10 | > 10 | > 10 | 0 | 0 | 0 | 0 | 0
5 | Cc1onc(O)c1C[C@@H](N)C(=O)O (racemic) [AMPA-(RS)] | 92.3 ± 9.6 | 102 ± 13 | 96.5 ± 5.2 | 101 ± 5.9 | 108 ± 5.2 | 95.7 ± 6.4 | 98.5 ± 1.5 | 95.8 ± 5 | 99.1 ± 3.5 | 106 ± 12 | 97.1 ± 1.8 | 95.6 ± 1.3 | 98.2 ± 2.3 | 98.5 ± 3.6 | 102 ± 2.5 | 99 ± 3.2 | 98.9 ± 1.1 | 93.8 ± 2.1 | 97.2 ± 1.3 | 104 ± 0.78 | 99.7 ± 0.42 | 89.15 ± 0.071 | 98.2 ± 3.9 | 93.2 ± 3.2 | 93 ± 3.8 | > 10 | > 10 | > 10 | > 10 | > 10 | 0 | 0 | 0 | 0 | 0
6 | O=C(O)CCC/C=C\C[C@@H]1[C@@H](/C=C/[C@@H](O)COc2cccc(Cl)c2)[C@H](O)C[C@@H]1O (racemic) [cloprostenol-(+/-)] | 98.2 | 106 | 104 | 103 | 104 | 110 | 108 | 106 | 95.5 | 100 | 103 | 106 | 99.9 | 102 | 97.6 | 99.1 | 103 | 105 | 102 | 102 | 100 | 104 | 96.1 | 97.7 | 92.3 | > 10 | > 10 | > 10 | > 10 | > 10 | 0 | 0 | 0 | 0 | 0
7 | N#C/C(=C\c1ccc(O)c(O)c1)C(=O)OCCc1cccs1 [2-TEDC] | 93.8 | 96.1 | 104 | 86 | 91.3 | 91.1 | 94.2 | 96.1 | 99.4 | 93.9 | 98.6 | 101 | 96.1 | 99.2 | 95.2 | 98.5 | 97.9 | 96.7 | 93.6 | 102 | 96.3 | 102 | 91.8 | 101 | 99.3 | > 10 | > 10 | > 10 | > 10 | > 10 | 1 | 0 | 0 | 0 | 0
8 | CN(C)CC[C@H](CSc1ccccc1)Nc1ccc(S(=O)(=O)NC(=O)c2ccc(N3CCN(Cc4ccccc4-c4ccc(Cl)cc4)CC3)cc2)cc1[N+](=O)[O-] [ABT-737] | 109 | 111 | 104 | 95.8 | 93 | 115 | 99.1 | 114 | 95.2 | 39.3 |  |  |  |  |  | 97.2 | 98.6 | 95.3 | 96 | 95.1 | 104 | 92.4 | 105 | 101 | 83.8 | > 10 | 2.52 |  | > 10 | > 10 | 0 | 4 |  | 0 | 0.3
9 | CCCn1c(=O)[nH]c2nc(-c3ccc(S(=O)(=O)O)cc3)[nH]c2c1=O [PSB-1115] |  |  |  |  |  | 112 | 104 | 100 | 110 | 94.4 | 99.9 | 109 | 98.2 | 108 | 102 | 106 | 105 | 107 | 103 | 95.5 | 99.4 | 94.6 | 111 | 105 | 95.4 |  | > 10 | > 10 | > 10 | > 10 |  | 0 | 0 | 0 | 0
10 | O=C(O)CCCN1CCC(O[C@@H](c2ccc(Cl)cc2)c2ccccn2)CC1 [bepotastine] | 98.7 | 113 | 99 | 102 | 113 | 97 | 106 | 94.2 | 93.8 | 113 |  |  |  |  |  | 93.2 | 98.3 | 90.2 | 95.8 | 105 | 91.3 | 92.1 | 99.4 | 93.4 | 107 | > 10 | > 10 |  | > 10 | > 10 | 0 | 0 |  | 0 | 0
11 | COc1cc(C(=O)NCCCCCC(=O)O)cc(OC)c1OC [capobenic-acid] |  |  |  |  |  | 96.3 | 94.9 | 94.5 | 104 | 98.6 | 97 | 103 | 94.7 | 111 | 94 | 103 | 101 | 99 | 101 | 94.6 | 110 | 111 | 96.7 | 80.2 | 93.5 |  | > 10 | > 10 | > 10 | > 10 |  | 0 | 0 | 0 | 3.1
12 | CC(=O)Nc1ccc(OC(C)=O)cc1 [diacetamate] | 114 | 98.5 | 110 | 101 | 105 | 99.1 | 99.7 | 99.7 | 101 | 84.9 |  |  |  |  |  | 96.1 | 96 | 94.3 | 84.8 | 101 | 91.8 | 103 | 94.7 | 101 | 111 | > 10 | > 10 |  | > 10 | > 10 | 0 | 0.2 |  | 0 | 0
13 | CCc1[nH]c(=O)[nH]c1C(=O)c1ccncc1 [piroximone] |  |  |  |  |  | 103 | 110 | 99.3 | 95.2 | 89.3 | 93.5 | 103 | 94.6 | 102 | 94.1 | 99 | 94.6 | 96.8 | 93.3 | 94.6 | 96.4 | 95.2 | 88.7 | 99.4 | 94.6 |  | > 10 | > 10 | > 10 | > 10 |  | 0 | 0 | 0 | 0
14 | CCCCCCCCCCCCCCCC[N+](C)(C)CCN(Cc1ccc(OC)cc1)c1ncccn1 [thonzonium] | 94.4 | 101 | 93.8 | 103 | 24.4 | 102 | 100 | 96.3 | 85.8 | -0.1 |  |  |  |  |  | 96 | 97.8 | 94.6 | 97.5 | 85.6 | 106 | 98.1 | 110 | 80.3 | 7.2 | 3.41 | 2.04 |  | > 10 | 1.69 | 3.9 | 7.9 |  | 0.4 | 8.3
15 | N#Cc1cc(-c2n[nH]c(-c3ccncc3)n2)ccn1 [topiroxostat] | 102 | 91.1 | 98.8 | 100 | 96.1 | 103 | 87.4 | 107 | 95.1 | 118 |  |  |  |  |  | 102 | 103 | 101 | 102 | 99.8 | 98.2 | 92.9 | 89.6 | 95.9 | 107 | > 10 | > 10 |  | > 10 | > 10 | 0 | 0 |  | 0 | 0
16 | CCn1c(=O)c(-c2cc[nH]n2)cc2c(C)nc(N)nc21 [voxtalisib] | 108 | 106 | 101 | 88.5 | 35.4 | 95 | 91.9 | 91 | 71.9 | 32.6 | 99.3 | 97.3 | 97.9 | 93.1 | 60.3 | 104 | 104 | 91.2 | 80.8 | 33.5 | 102 | 96.7 | 93.5 | 86.5 | 42.9 | 1.84 | 1.17 |  | 1.55 | 1.61 | 5.4 | 6.8 | 3.1 | 6.1 | 5.2
